Results: patent publication EP4745135A1 (Gluetacs Therapeutics (Shanghai) Co., Ltd., priority 2023, dated 2025)

How the values were obtained:
[1] = biological target: T1, human Cereblon WT GST-tagged protein (Homo sapiens, UniProt Q96SW2); experiment: CRBN-binding affinity, HTRF (CEREBLON BINDING kit); details: for inhibition at 0.5 µM: read-out: Inhibition Rate at 0.5 µM (%); for inhibition at 2 µM: read-out: Inhibition Rate at 2 µM (%); for IC50: CRBN binding, HTRF, 3 hours at room temperature, read-out: HTRF IC50
T1 construct: purchased CISBIO 64BDCRBNPEH
T1 sequence (Q96SW2 whole entry): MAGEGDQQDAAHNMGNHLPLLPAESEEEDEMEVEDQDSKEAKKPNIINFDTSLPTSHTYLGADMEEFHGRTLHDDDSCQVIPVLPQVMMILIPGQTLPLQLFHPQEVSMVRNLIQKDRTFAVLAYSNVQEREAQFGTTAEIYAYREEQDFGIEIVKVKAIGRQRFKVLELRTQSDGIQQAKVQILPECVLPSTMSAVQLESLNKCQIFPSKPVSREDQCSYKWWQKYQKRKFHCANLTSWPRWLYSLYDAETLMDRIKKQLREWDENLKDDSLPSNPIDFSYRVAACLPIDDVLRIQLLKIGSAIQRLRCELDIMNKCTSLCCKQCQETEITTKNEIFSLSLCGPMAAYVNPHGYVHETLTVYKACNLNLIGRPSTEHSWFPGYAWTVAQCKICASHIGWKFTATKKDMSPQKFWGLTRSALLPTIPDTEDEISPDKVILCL

GSPT1 = experiment: Western blot, degradation of substrate protein in hPBMCs; format: cell-based, Human
IKZF1 = biological target: T2, IKZF1 (Homo sapiens, UniProt Q13422+Q96SW2); experiment: as above; format: cell-based
T2 construct: effects of the compounds of the present disclosure on the expression of target proteins in cells; endogenous in cells; host or cells: human PBMCs (Milecell Biotechnologies)
T2 sequence (Q13422 whole entry): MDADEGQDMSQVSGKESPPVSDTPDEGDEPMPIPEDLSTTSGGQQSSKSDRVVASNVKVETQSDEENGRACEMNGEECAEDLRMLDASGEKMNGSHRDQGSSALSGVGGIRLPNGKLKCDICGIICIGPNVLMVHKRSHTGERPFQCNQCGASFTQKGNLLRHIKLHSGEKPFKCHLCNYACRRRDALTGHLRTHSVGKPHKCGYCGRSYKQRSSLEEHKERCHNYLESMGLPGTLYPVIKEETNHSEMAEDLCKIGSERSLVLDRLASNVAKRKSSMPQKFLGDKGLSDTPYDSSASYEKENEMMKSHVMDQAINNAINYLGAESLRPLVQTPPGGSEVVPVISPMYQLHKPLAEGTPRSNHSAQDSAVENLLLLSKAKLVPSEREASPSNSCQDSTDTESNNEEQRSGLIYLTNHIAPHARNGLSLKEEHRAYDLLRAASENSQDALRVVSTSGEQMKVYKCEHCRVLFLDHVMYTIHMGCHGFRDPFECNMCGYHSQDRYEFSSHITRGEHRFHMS
T2 sequence (Q96SW2 whole entry): as the sequence (Q96SW2 whole entry) above
T2 sequence (Q16531 whole entry partner): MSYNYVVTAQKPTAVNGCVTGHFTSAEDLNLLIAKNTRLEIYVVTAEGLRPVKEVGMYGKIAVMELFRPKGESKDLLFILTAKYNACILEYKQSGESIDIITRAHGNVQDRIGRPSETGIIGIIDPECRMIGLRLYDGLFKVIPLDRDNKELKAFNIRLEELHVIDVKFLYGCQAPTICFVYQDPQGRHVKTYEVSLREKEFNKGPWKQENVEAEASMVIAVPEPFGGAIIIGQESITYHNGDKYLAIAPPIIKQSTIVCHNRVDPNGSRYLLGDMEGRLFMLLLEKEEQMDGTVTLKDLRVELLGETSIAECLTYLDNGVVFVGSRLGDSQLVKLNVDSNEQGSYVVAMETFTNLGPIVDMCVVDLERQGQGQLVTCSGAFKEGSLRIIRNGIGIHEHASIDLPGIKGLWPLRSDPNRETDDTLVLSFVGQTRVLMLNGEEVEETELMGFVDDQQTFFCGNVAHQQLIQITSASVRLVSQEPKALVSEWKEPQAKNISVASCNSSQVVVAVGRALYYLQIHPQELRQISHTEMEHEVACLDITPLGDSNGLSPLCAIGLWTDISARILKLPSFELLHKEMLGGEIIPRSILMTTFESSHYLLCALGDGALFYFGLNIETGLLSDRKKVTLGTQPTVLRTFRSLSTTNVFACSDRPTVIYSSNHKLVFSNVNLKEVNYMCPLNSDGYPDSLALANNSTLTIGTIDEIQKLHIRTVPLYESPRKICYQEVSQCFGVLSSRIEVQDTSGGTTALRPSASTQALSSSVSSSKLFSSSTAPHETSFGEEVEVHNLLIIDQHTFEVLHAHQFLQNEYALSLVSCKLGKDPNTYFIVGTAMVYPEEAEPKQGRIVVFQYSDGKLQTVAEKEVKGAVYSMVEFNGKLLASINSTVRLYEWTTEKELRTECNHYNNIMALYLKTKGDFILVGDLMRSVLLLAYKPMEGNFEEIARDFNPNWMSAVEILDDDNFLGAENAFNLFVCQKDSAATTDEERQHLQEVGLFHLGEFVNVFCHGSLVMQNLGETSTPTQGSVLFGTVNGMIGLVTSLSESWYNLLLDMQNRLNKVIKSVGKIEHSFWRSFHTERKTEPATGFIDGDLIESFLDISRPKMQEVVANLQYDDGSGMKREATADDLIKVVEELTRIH

IKZF2 = biological target: T3, IKZF2 (Homo sapiens, UniProt Q96SW2+Q9UKS7); experiment: as above; format: cell-based
T3 construct: effects of the compounds of the present disclosure on the expression of target proteins in cells; endogenous in cells; host or cells: human PBMCs (Milecell Biotechnologies)
T3 sequence (Q9UKS7 whole entry): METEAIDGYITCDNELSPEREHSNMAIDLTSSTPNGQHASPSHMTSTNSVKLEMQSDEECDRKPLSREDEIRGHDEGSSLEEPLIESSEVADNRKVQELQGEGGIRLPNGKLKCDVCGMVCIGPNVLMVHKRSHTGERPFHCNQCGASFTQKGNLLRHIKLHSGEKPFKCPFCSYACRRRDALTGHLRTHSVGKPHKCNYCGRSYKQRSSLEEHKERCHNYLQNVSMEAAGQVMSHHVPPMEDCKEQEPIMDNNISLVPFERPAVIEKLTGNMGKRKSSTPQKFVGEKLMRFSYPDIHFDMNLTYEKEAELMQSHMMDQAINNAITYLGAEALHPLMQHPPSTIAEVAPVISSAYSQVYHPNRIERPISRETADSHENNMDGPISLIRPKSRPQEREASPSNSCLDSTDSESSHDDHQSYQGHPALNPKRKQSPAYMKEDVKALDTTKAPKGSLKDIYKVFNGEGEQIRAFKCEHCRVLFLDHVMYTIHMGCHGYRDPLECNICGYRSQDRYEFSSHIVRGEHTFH
T3 sequence (Q96SW2 whole entry): as the sequence (Q96SW2 whole entry) above
T3 sequence (Q16531 whole entry partner): as the sequence (Q16531 whole entry partner) above

WEE1 = biological target: T4, WEE1 (Homo sapiens, UniProt P30291+Q96SW2); experiment: as above; format: cell-based
T4 construct: effects of the compounds of the present disclosure on the expression of target proteins in cells; endogenous in cells; host or cells: human PBMCs (Milecell Biotechnologies)
T4 sequence (P30291 whole entry): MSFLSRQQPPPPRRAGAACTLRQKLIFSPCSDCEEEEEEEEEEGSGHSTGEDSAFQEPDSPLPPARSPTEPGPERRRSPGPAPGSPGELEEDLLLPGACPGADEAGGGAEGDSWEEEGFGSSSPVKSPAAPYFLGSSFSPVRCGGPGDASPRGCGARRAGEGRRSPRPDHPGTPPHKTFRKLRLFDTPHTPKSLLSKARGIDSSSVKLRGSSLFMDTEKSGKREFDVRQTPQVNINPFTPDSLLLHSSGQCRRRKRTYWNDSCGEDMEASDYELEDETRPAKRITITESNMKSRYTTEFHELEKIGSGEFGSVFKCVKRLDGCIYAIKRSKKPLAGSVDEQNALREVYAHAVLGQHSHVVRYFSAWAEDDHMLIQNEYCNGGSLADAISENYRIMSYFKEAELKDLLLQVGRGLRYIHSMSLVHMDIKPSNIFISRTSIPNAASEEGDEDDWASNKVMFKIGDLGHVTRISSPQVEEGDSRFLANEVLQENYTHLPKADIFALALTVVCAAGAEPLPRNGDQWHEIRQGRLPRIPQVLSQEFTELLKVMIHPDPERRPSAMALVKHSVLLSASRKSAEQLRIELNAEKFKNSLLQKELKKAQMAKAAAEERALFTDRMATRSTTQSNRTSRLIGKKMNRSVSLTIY
T4 sequence (Q96SW2 whole entry): as the sequence (Q96SW2 whole entry) above
T4 sequence (Q16531 whole entry partner): as the sequence (Q16531 whole entry partner) above

CK1α = biological target: T5, CK1α (Homo sapiens, UniProt P48729+Q96SW2); experiment: as above; format: cell-based
T5 construct: effects of the compounds of the present disclosure on the expression of target proteins in cells; endogenous in cells; host or cells: human PBMCs (Milecell Biotechnologies)
T5 sequence (P48729 whole entry): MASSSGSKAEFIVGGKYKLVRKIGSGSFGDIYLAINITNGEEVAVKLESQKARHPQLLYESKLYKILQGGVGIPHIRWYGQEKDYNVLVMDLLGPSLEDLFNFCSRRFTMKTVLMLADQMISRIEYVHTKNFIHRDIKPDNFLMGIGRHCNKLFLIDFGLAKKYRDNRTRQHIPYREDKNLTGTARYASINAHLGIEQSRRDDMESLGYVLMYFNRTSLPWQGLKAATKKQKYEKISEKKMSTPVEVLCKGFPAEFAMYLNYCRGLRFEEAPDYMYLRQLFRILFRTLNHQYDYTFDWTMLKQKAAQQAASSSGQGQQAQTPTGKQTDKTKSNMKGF
T5 sequence (Q96SW2 whole entry): as the sequence (Q96SW2 whole entry) above
T5 sequence (Q16531 whole entry partner): as the sequence (Q16531 whole entry partner) above

IKZF3 = biological target: T6, IKZF3 (Homo sapiens, UniProt Q96SW2+Q9UKT9); experiment: as above; format: cell-based
T6 construct: effects of the compounds of the present disclosure on the expression of target proteins in cells; endogenous in cells; host or cells: human PBMCs (Milecell Biotechnologies)
T6 sequence (Q9UKT9 whole entry): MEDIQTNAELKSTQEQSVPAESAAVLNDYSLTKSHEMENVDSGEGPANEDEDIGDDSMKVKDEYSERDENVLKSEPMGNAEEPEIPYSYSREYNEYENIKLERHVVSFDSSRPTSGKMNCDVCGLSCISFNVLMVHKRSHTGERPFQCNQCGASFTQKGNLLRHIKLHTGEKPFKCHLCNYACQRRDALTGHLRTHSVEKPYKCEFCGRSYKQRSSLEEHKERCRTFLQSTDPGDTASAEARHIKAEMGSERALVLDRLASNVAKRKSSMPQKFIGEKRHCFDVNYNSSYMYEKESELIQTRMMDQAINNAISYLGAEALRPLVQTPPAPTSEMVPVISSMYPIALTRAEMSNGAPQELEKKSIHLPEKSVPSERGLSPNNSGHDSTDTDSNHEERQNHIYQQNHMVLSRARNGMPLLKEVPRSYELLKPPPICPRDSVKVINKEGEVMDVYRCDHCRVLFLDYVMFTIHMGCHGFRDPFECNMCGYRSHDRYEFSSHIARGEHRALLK
T6 sequence (Q96SW2 whole entry): as the sequence (Q96SW2 whole entry) above
T6 sequence (Q16531 whole entry partner): as the sequence (Q16531 whole entry partner) above

[2] = system: Human multiple myeloma cell (MM.1S); experiment: Tumor cell proliferation inhibition (CellTiter-Meiluncell luminescent cell viability assay); details: for inhibition at 0.01 µM / inhibition at 0.5 µM / IC50: Homo sapiens, MM1.S, 96 h; for inhibition at 0.01 µM: read-out: Inhibition Rate at 10 nM (%); for inhibition at 0.5 µM: read-out: Inhibition Rate at 500 nM (%); for IC50: read-out: Inhibitory activity (IC50, nM) on tumor cell proliferation, MM.1S
[3] = Western blot, 24 hours of compound treatment, compounds tested at 50 nM and 500 nM (concentration for the table not stated)
[4] = 24 hours treatment, compounds at 50 nM and 500 nM (concentration behind the class not stated)

O=C1CCC(N2Cc3c(CN4CCN(c5cc(Cl)ccn5)CC4)cccc3C2=S)C(=O)N1 (centres unmarked) [GT-08695, 3-(4-((4-(4-chloropyridin-2-yl)piperazin-1-yl)methyl)-1-thioxoisoindolin-2-yl)piperidine-2,6-dione]
inhibition at 0.5 µM [1]: 60 to 80%
inhibition at 2 µM [1]: 80 to 100%
GSPT1 substrate protein remaining % (GSPT1; [3]): B (80%< substrate protein remaining %≤ 100%)
IKZF 1 substrate protein remaining % (IKZF1; [3]): B (80%< substrate protein remaining %≤ 100%)
IKZF2 substrate protein remaining % (IKZF2; [3]): B (80%< substrate protein remaining %≤ 100%)
Wee1 substrate protein remaining % (WEE1; [3]): A (0% ≤ substrate protein remaining % ≤ 80%)
CK1α substrate protein remaining % (CK1α; [3]): B (80%< substrate protein remaining %≤ 100%)
IKZF3 substrate protein remaining % (IKZF3; [3]): B (80%< substrate protein remaining %≤ 100%)
inhibition at 0.01 µM [2]: 20 to 30%
inhibition at 0.5 µM [2]: 40 to 50%

Cc1cscc1C1CCN(Cc2ccc3c(c2)CN(C2CCC(=O)NC2=O)C3=S)CC1 (centres unmarked) [GT-05146, 3-(5-((4-(4-methylthiophen-3-yl)piperidin-1-yl)methyl)-1-thioxoisoindolin-2-yl)piperidine-2,6-dione]
IC50 [1]: 100 to 500 nM
GSPT1 substrate protein remaining % (GSPT1; [3]): A (0% ≤ substrate protein remaining % ≤ 80%)
IKZF 1 substrate protein remaining % (IKZF1; [3]): A (0% ≤ substrate protein remaining % ≤ 80%)
IKZF2 substrate protein remaining % (IKZF2; [3]): B (80%< substrate protein remaining %≤ 100%)
Wee1 substrate protein remaining % (WEE1; [3]): A (0% ≤ substrate protein remaining % ≤ 80%)
CK1α substrate protein remaining % (CK1α; [3]): B (80%< substrate protein remaining %≤ 100%)
IKZF3 substrate protein remaining % (IKZF3; [3]): B (80%< substrate protein remaining %≤ 100%)
IC50 [2]: 100 to 500 nM

O=C1CCC(N2Cc3c(CN4CC=C(c5ncnc6sc7c(c56)CCCC7)CC4)cccc3C2=S)C(=O)N1 (centres unmarked) [GT-08962, 3-(4-((4-(5,6,7,8-tetrahydrobenzo[4,5]thieno[2,3-d]pyrimidin-4-yl)-3,6-dihydropyridin-1(2H)-yl)methyl)-1-thioxoisoindolin-2-yl)piperidine-2,6-dione]
inhibition at 0.5 µM [1]: 40 to 53%
inhibition at 2 µM [1]: 80 to 100%
GSPT1 substrate protein remaining % (GSPT1; [4]): A (0% ≤ substrate protein remaining % ≤ 80%)
IKZF 1 substrate protein remaining % (IKZF1; [4]): B (80%< substrate protein remaining %≤ 100%)
IKZF2 substrate protein remaining % (IKZF2; [4]): B (80%< substrate protein remaining %≤ 100%)
Wee1 substrate protein remaining % (WEE1; [4]): A (0% ≤ substrate protein remaining % ≤ 80%)
CK1α substrate protein remaining % (CK1α; [4]): B (80%< substrate protein remaining %≤ 100%)
IKZF3 substrate protein remaining % (IKZF3; [4]): B (80%< substrate protein remaining %≤ 100%)
inhibition at 0.01 µM [2]: 30 to 40%
inhibition at 0.5 µM [2]: 40 to 50%

Cc1ccc(C2CCN(Cc3ccc4c(c3)CN(C3CCC(=O)NC3=O)C4=S)CC2)s1 (centres unmarked) [GT-05112, 3-(5-((4-(5-methylthiophen-2-yl)piperidin-1-yl)methyl)-1-thioxoisoindolin-2-yl)piperidine-2,6-dione]
IC50 [1]: 100 to 500 nM
GSPT1 substrate protein remaining % (GSPT1; [3]): A (0% ≤ substrate protein remaining % ≤ 80%)
IKZF 1 substrate protein remaining % (IKZF1; [3]): A (0% ≤ substrate protein remaining % ≤ 80%)
IKZF2 substrate protein remaining % (IKZF2; [3]): B (80%< substrate protein remaining %≤ 100%)
Wee1 substrate protein remaining % (WEE1; [3]): B (80%< substrate protein remaining %≤ 100%)
CK1α substrate protein remaining % (CK1α; [3]): B (80%< substrate protein remaining %≤ 100%)
IKZF3 substrate protein remaining % (IKZF3; [3]): A (0% ≤ substrate protein remaining % ≤ 80%)
IC50 [2]: 50 to 100 nM

O=C1CCC(N2Cc3cc(CN4C[C@H]5C[C@@H]4CN5c4cccc(Cl)c4Cl)ccc3C2=S)C(=O)N1 (stereo partly drawn) [GT-08477, 3-(5-(((1R,4R)-5-(2,3-dichlorophenyl)-2,5-diazabicyclo[2.2.1]heptan-2-yl)methyl)-1-thioxoisoindolin-2-yl)piperidine-2,6-dione]
inhibition at 0.5 µM [1]: 53 to 60%
inhibition at 2 µM [1]: 80 to 100%
GSPT1 substrate protein remaining % (GSPT1; [3]): A (0% ≤ substrate protein remaining % ≤ 80%)
IKZF 1 substrate protein remaining % (IKZF1; [3]): B (80%< substrate protein remaining %≤ 100%)
IKZF2 substrate protein remaining % (IKZF2; [3]): B (80%< substrate protein remaining %≤ 100%)
Wee1 substrate protein remaining % (WEE1; [3]): B (80%< substrate protein remaining %≤ 100%)
CK1α substrate protein remaining % (CK1α; [3]): B (80%< substrate protein remaining %≤ 100%)
IKZF3 substrate protein remaining % (IKZF3; [3]): A (0% ≤ substrate protein remaining % ≤ 80%)
inhibition at 0.5 µM [2]: 40 to 50%
Inhibition Rate at 10 nM (%) ([2]; MM.1S, 10 nM, 96 hours): la5

O=C1CCC(N2Cc3cc(CN4CCN(C(c5ccccc5)c5ccccn5)CC4)ccc3C2=S)C(=O)N1 (centres unmarked) [GT-05103, 3-(5-((4-(phenyl(pyridin-2-yl)methyl)piperazin-1-yl)methyl)-1-thioxoisoindolin-2-yl)piperidine-2,6-dione]
IC50 [1]: 100 to 500 nM
GSPT1 substrate protein remaining % (GSPT1; [3]): A (0% ≤ substrate protein remaining % ≤ 80%)
IKZF 1 substrate protein remaining % (IKZF1; [3]): B (80%< substrate protein remaining %≤ 100%)
IKZF2 substrate protein remaining % (IKZF2; [3]): B (80%< substrate protein remaining %≤ 100%)
Wee1 substrate protein remaining % (WEE1; [3]): B (80%< substrate protein remaining %≤ 100%)
CK1α substrate protein remaining % (CK1α; [3]): B (80%< substrate protein remaining %≤ 100%)
IKZF3 substrate protein remaining % (IKZF3; [3]): B (80%< substrate protein remaining %≤ 100%)
IC50 [2]: 10 to 50 nM

Cc1cc2c(C3=CCN(Cc4cccc5c4CN(C4CCC(=O)NC4=O)C5=S)CC3)ncnc2s1 (centres unmarked) [GT-08947, 3-(4-((4-(6-methylthieno[2,3-d]pyrimidin-4-yl)-3,6-dihydropyridin-1(2H)-yl)methyl)-1-thioxoisoindolin-2-yl)piperidine-2,6-dione]
inhibition at 0.5 µM [1]: 60 to 80%
inhibition at 2 µM [1]: 80 to 100%
GSPT1 substrate protein remaining % (GSPT1; [4]): B (80%< substrate protein remaining %≤ 100%)
IKZF 1 substrate protein remaining % (IKZF1; [4]): B (80%< substrate protein remaining %≤ 100%)
IKZF2 substrate protein remaining % (IKZF2; [4]): B (80%< substrate protein remaining %≤ 100%)
Wee1 substrate protein remaining % (WEE1; [4]): A (0% ≤ substrate protein remaining % ≤ 80%)
CK1α substrate protein remaining % (CK1α; [4]): B (80%< substrate protein remaining %≤ 100%)
IKZF3 substrate protein remaining % (IKZF3; [4]): B (80%< substrate protein remaining %≤ 100%)
inhibition at 0.01 µM [2]: 30 to 40%
inhibition at 0.5 µM [2]: 40 to 50%

O=C1CCC(N2Cc3cc(CN4CC=C(c5ccnc6cc(F)ccc56)CC4)ccc3C2=S)C(=O)N1 (centres unmarked) [GT-05245, 3-(5-((4-(7-fluoroquinolin-4-yl)-3,6-dihydropyridin-1(2H)-yl)methyl)-1-thioxoisoindolin-2-yl)piperidine-2,6-dione]
IC50 [1]: < 100 nM
GSPT1 substrate protein remaining % (GSPT1; [3]): A (0% ≤ substrate protein remaining % ≤ 80%)
IKZF 1 substrate protein remaining % (IKZF1; [3]): B (80%< substrate protein remaining %≤ 100%)
IKZF2 substrate protein remaining % (IKZF2; [3]): A (0% ≤ substrate protein remaining % ≤ 80%)
Wee1 substrate protein remaining % (WEE1; [3]): A (0% ≤ substrate protein remaining % ≤ 80%)
CK1α substrate protein remaining % (CK1α; [3]): B (80%< substrate protein remaining %≤ 100%)
IKZF3 substrate protein remaining % (IKZF3; [3]): A (0% ≤ substrate protein remaining % ≤ 80%)
IC50 [2]: 10 to 50 nM

O=C1CCC(N2Cc3cc(CN4C5CC4CN(c4cccc(Cl)c4Cl)C5)ccc3C2=S)C(=O)N1 (centres unmarked) [GT-05182, 3-(5-((3-(2,3-dichlorophenyl)-3,6-diazabicyclo[3.1.1]heptan-6-yl)methyl)-1-thioxoisoindolin-2-yl)piperidine-2,6-dione]
IC50 [1]: 100 to 500 nM
GSPT1 substrate protein remaining % (GSPT1; [3]): A (0% ≤ substrate protein remaining % ≤ 80%)
IKZF 1 substrate protein remaining % (IKZF1; [3]): B (80%< substrate protein remaining %≤ 100%)
IKZF2 substrate protein remaining % (IKZF2; [3]): B (80%< substrate protein remaining %≤ 100%)
Wee1 substrate protein remaining % (WEE1; [3]): A (0% ≤ substrate protein remaining % ≤ 80%)
CK1α substrate protein remaining % (CK1α; [3]): B (80%< substrate protein remaining %≤ 100%)
IKZF3 substrate protein remaining % (IKZF3; [3]): B (80%< substrate protein remaining %≤ 100%)
IC50 [2]: 100 to 500 nM
